Laboratory results: patent US20250064789A1, “KETOAMIDE DERIVATIVES AND PHARMACEUTICAL USES THEREOF” (priority 2022, published 2025)

Legend:
[1] = target: recombinant SARS-CoV-2 M^pro (Severe acute respiratory syndrome coronavirus 2 (2019-nCoV) (SARS-CoV-2), UniProt P0DTD1); test: Inhibition of SARS-CoV-2 M^pro enzyme activity (fluorescent substrate assay); type: biochemical; conditions: inhibition of SARS-CoV-2 M^pro enzyme activity; values in nM; read-out: IC50
[2] = Cytotoxic assay against Vero E6 cells (MTT, 72 h); type: cell-based; conditions: African green monkey
Method: The cytotoxicity assessment of compounds was performed against Vero E6 cells. The specific experimental procedures: Vero E6 cells were seeded into a 96-well plate at a cell density of 2×10^4 cells/well, with 100 μL/well, and then incubated overnight at 37° C. in a 5% CO2 incubator. The next day, 100 μL of drug-containing medium was added to each well. The compound was diluted in a 2-fold serial dilution with a top concentration of […], for a total of 6 gradients. Three repeated wells were set for each concentration, and negative controls and blank controls without drugs were included for each experiment. […] All experimental data were analyzed using GraphPad Prism software.

in vivo = conditions: male, Sprague-Dawley, rat, po, 10 mg/kg
[3] = Cytotoxic assay against HUVEC cells (MTT, 72 h); type: cell-based, human; conditions: human
Method: (§1) BEAS-2B cells (normal human bronchial epithelial cells) and HUVEC cells (human umbilical vein endothelial cells) were used to evaluate the cytotoxicity of compounds against human-derived cells. The detailed experimental procedures: BEAS-2B cells or HUVEC cells were seeded into a 96-well plate at a cell density of 2×10^4 cells/well, that is, 100 µL/well, and then incubated overnight at 37° C. in a 5% CO2 incubator. The next day, 100 μL of drug-containing medium was added to each well. The compound was diluted in a 2-fold serial dilution with a top concentration of […], for a total of 6 gradients. Three repeated wells were set for each concentration, and negative controls and blank controls without drugs were included for each experiment. […] All experimental data were analyzed using GraphPad Prism software.

[4] = Metabolic stability using human liver microsomes; type: in vitro ADME; conditions: pH 7.4, NADPH, 37° C., read-out: Human liver microsomes T1/2
[5] = Cytotoxic assay against human BEAS-2B cells (MTT, 72 h); type: cell-based; conditions: human
Method: as §1

Compound | IC50 [1] [nM] | CC50 at 72 h [2] [µM] | CC50 at 72 h [3] [µM] | CC50 at 72 h [5] [µM] | other results
CC(C)(C(=O)NCC1CCC(F)(F)CC1)C(=O)N[C@H](Cc1ccccc1)C(=O)C(=O)NCc1ccccn1 [Compound 324, (R)—N^1-((4,4-difluorocyclohexyl)methyl)-N^3-(3,4-dioxo-1-phenyl-4-((pyridin-2-ylmethyl)amino)butan-2-yl)-2,2-dimethylmalonamide] | 9.6 ± 0.1 | > 500 | – | – | –
O=C(CNC(=O)C1CC12CCC(F)(F)CC2)N[C@H](Cc1ccccc1)C(=O)C(=O)NCc1ccccn1 (stereo partly shown) [Compound 333] | 13.4 ± 0.2 | – | – | – | AUC(0-inf) (in vivo): 22400 ± 10800 ng·h/mL; AUC(0-t) (in vivo): 18700 ± 9060 ng·h/mL; Cmax (in vivo): 1590 ± 573 ng/mL; MRT inf (in vivo): 7.47 ± 0.38 h; Tmax (in vivo): 55.2 ± 57 min; half-life (in vivo): 584 ± 22.8 min
C[C@@H](NC(=O)C1CCC(F)(F)CC1)C(=O)N[C@H](Cc1ccco1)C(=O)C(=O)NCc1ccccn1 [Compound 362] | 34 ± 0.6 | > 500 | > 500 | > 500 | half-life at 1 µM [4]: 33.6 min
C[C@@H](NC(=O)C1CCCC(F)(F)C1)C(=O)N[C@H](Cc1ccccc1)C(=O)C(=O)NCc1nccs1 (stereo partly shown) [Compound 375] | 13.8 ± 1.2 | > 500 | 384 | 325 | –
O=C(CC1CC(F)(F)C1)NCC(=O)N[C@H](Cc1ccccc1)C(=O)C(=O)NCc1nccs1 [Compound 387] | 12.5 ± 1.2 | > 500 | > 500 | > 500 | –
O=C(NCc1nccs1)C(=O)[C@@H](Cc1ccccc1)NC(=O)[C@H]1CC(F)(F)CN1C(=O)C1CCC(F)(F)CC1 [Compound 402] | 19.9 ± 0.3 | 410 | 327 | > 500 | –
C[C@@H](NC(=O)C1CCC(F)(F)C1)C(=O)N[C@H](Cc1ccccc1)C(=O)C(=O)NCc1cscn1 (stereo partly shown) [Compound 415] | 19.4 ± 2.2 | > 500 | 468 | > 500 | –
C[C@@H](NC(=O)CC1CC(F)(F)C1)C(=O)N[C@H](Cc1ccccc1)C(=O)C(=O)NCc1cscn1 [Compound 418] | 10.6 ± 0.3 | > 500 | > 500 | > 500 | –
O=C(CC1CC(F)(F)C1)NCC(=O)N[C@H](Cc1ccccc1)C(=O)C(=O)NCc1cscn1 [Compound 423] | 13.2 ± 0.2 | > 500 | > 500 | > 500 | –
O=C(O)C[C@@H](NC(=O)CC1CC(F)(F)C1)C(=O)N[C@H](Cc1ccccc1)C(=O)C(=O)NCc1nccs1 [Compound 572] | 33.8 ± 2.5 | – | – | – | –
COC(=O)C[C@@H](NC(=O)CC1CC(F)(F)C1)C(=O)N[C@H](Cc1ccccc1)C(=O)C(=O)NCc1nccs1 [Compound 574] | 14.4 ± 0.8 | – | – | – | –
CNC(=O)C[C@@H](NC(=O)CC1CC(F)(F)C1)C(=O)N[C@H](Cc1ccccc1)C(=O)C(=O)NCc1nccs1 [Compound 575] | 23.5 ± 0.9 | – | – | – | –
CC(C)(C)[C@H](NC(=O)C(F)(F)F)C(=O)N1C[C@H]2[C@@H]([C@H]1C(=O)N[C@H](C#N)C[C@@H]1CCNC1=O)C2(C)C [PF-07321332, Nirmatrelvir, reference compound] | – | – | – | – | half-life at 1 µM [4]: 21.2 min
(R)-3-((R)-2-(benzyloxy)propionamido)-N-((5-chloropyridin-2-yl)methyl)-4-(4-fluorophenyl)-2-oxobutyramide [Compound 52] | 44.2 ± 3.4 | – | – | – | –
